Results taken from patent US8722910B2, “Diyne compositions” (Evolva AG, priority 2009, dated 2014).
≈ marks a conversion by molar mass, not a printed value. Where two headings read alike, the source gives them in different places.

Assays:
[1] = test system: Candida albicans; assay: In vitro fungicidal activity vs. Candida albicans; conditions: Candida albicans
[2] = test system: Chitin Synthase; assay: Inhibition of fungal cell wall synthesis enzymes; format: biochemical; conditions: 9.9 μg/ml
Text: Specific inhibitors of each enzyme served as positive controls (Cilofungin, a β-glucan synthase inhibitor and nikkomycin Z, a chitin synthase inhibitor).

[3] = test system: M. gypseum; assay: In vitro antifungal activity vs. dermatophytes (MIC/MFC); format: cell-based; conditions: Nannizzia gypsea, 96 h; M. gypseum (n = 1); 35° C., 4 days
[4] = test system: ergosterol biosynthesis; assay: 13C-acetate incorporation into ergosterol; format: cell-based, Candida albicans; conditions: drug at about its MIC, added after the first 15 minutes
[5] = test system: T. terrestre; assay: In vitro antifungal activity vs. dermatophytes (MIC/MFC); format: cell-based; conditions: 96 h; T. terrestre (n = 1); 35° C., 4 days
[6] = test system: T. rubrum, Terbinafine resistant isolates; assay: as above; format: cell-based; conditions: Trichophyton rubrum, 96 h; T. rubrum (TERB-resistant) (n = 9); 35° C., 4 days
[7] = test system: M. vanbreuseghemii; assay: as above; format: cell-based; conditions: 96 h; M. vanbreuseghemii (n = 1); 35° C., 4 days
[8] = test system: Trichophyton tonsurans; assay: as above; format: cell-based; conditions: 96 h; Trichophyton tonsurans (n = 15); 35° C., 4 days
[9] = test system: T. rubrum; assay: as above; format: cell-based; conditions: Trichophyton rubrum, 96 h; T. rubrum (n = 15); 35° C., 4 days
[10] = test system: T. mentagrophytes; assay: as above; format: cell-based; conditions: Trichophyton mentagrophytes, 96 h; T. mentagrophytes (n = 15); 35° C., 4 days
[11] = test system: Microsporum canis; assay: as above; format: cell-based; conditions: 96 h; Microsporum canis (n = 15); 35° C., 4 days
[12] = test system: M. cookie; assay: as above; format: cell-based; conditions: 96 h; M. cookie (n = 1); 35° C., 4 days
[13] = test system: Epidermophyton floccosum; assay: as above; format: cell-based; conditions: 96 h; Epidermophyton floccosum (n = 15); 35° C., 4 days
[14] = test system: M. gallinae; assay: as above; format: cell-based; conditions: 96 h; M. gallinae (n = 1); 35° C., 4 days
[15] = test system: all dermatophyte strains; assay: MIC and MFC range over all dermatophyte strains tested; format: cell-based, dermatophytes; conditions: Table 14 strains
[16] = test system: C. albicans SC5314; assay: MIC versus reference Candida strains (broth micro dilution); format: cell-based
[17] = test system: S. cerevisiae 2229-5C; assay: IC50 (50% growth inhibition) of diyne compounds; format: cell-based; conditions: Saccharomyces cerevisiae, 22295C; strain 2229-5C
Protocol: (§1) The inhibition is partly measured by minimum inhibitory and minimum fungicidal concentration (MIC and MFC, respectively) and partly as IC50 (i.e. concentration required for 50% inhibition).
(§2) IC50 against two different S. cerevisiae strains and two different C. albicans strains by a number of diyne compounds was determined and the results are shown in Table 17.

[18] = test system: S. cerevisiae AD1-9; assay: IC50 (50% growth inhibition) of diyne compounds; format: cell-based; conditions: Saccharomyces cerevisiae, AD19; strain AD1-9
Protocol: as §1, §2

[19] = test system: C. albicans DSY1024; assay: IC50 (50% growth inhibition) of diyne compounds; format: cell-based; conditions: Candida albicans, DSY1024, read-out: C. albicans IC50
Protocol: as §1, §2

[20] = test system: C. albicans SC5314; assay: IC50 (50% growth inhibition) of diyne compounds; format: cell-based; conditions: Candida albicans; strain SC5314
Protocol: as §1, §2

[21] = test system: C. krusei ATCC-6258; assay: MIC versus reference Candida strains (broth micro dilution); conditions: Pichia kudriavzevii, ATCC6258
[22] = test system: C. glabrata ATCC-90030; assay: as above; conditions: Nakaseomyces glabratus, ATCC90030
[23] = test system: C. parapsilosis ATCC-22019; assay: as above; conditions: Lodderomyces parapsilosis, ATCC22019
[24] = test system: C. parapsilosis ATCC-90018; assay: as above; conditions: Lodderomyces parapsilosis, ATCC90018
[25] = test system: C. tropicalis ATCC-750; assay: as above; conditions: Candida tropicalis, ATCC750
[26] = test system: C. albicans ATCC-24433; assay: as above; conditions: Candida albicans, ATCC24433
[27] = test system: C. albicans ATCC-90028; assay: as above; conditions: Candida albicans, ATCC90028
[28] = test system: S. cerevisiae; assay: Doubling times of S. cerevisiae; format: cell-based; conditions: 10 μg/ml oleic acid alone
Protocol: S. cerevisiae was cultured in the presence of 1 and 10 μg/ml of the potassium salt, 10 μg/ml oleic acid and 1 μg/ml of the potassium salt combined with 10 μg/ml oleic acid.
When S. cerevisiae was cultured in the presence of 1 and 10 μg/ml compound IV″, the doubling times increased to 2.4 h and 4.2 h, respectively, compared to 2 h for the untreated control. The addition of 10 μg/ml oleic acid, sodium salt, to 1 μg/ml compound IV″ reversed the doubling time to 2 h as observed for the untreated control or 10 μg/ml oleic acid, sodium salt alone.

[29] = test system: OLE1; assay: OLE1 expression by real time PCR; format: cell-based, S. cerevisiae; conditions: 10 μg/ml oleic acid alone
Protocol: The expression of OLE1 was determined by real time PCR 10, 60, 120 and 240 min after compound addition (Knechtle, P. and Greve, K., 2009). OLE1 transcript levels were calibrated to the expression of the tubulin gene (TUB1) and normalized to the OLE1 expression at 10 min without compound addition (FIG. 17(a)).
The expression of the OLE1 gene was determined by real time PCR 10, 60, 120 and 240 min for the conditions a.-e., as indicated in Table 3 above. OLE1 transcript levels were calibrated to the expression of the tubulin gene (TUB1) and normalized to the OLE1 expression at 10 min without compound addition. See FIG. 17a showing time dependent expressions of OLE1 in response to compound IV″. Conditions a.-e. are listed in Table 3 above, numbers indicate time intervals in minutes. Expressions of OLE1 are given as multiples of the expression at 10 min, condition a. […] 10 μg/ml oleic acid compensated for the OLE1 expression increase caused by 1 μg/ml compound IV alone. Compound IV″ dependent up-regulation of OLE1 expression thus confirms that compound IV″ is acting as an inhibitor of the Ole1 protein. The antagonistic effect of oleic acid found in the susceptibility assays, is reflected mechanistically in this experiment by a down-regulation of the target Ole1 protein through oleic acid.

SMILES: CC(=O)N1CCN(c2ccc(OCC3COC(Cn4ccnc4)(c4ccc(Cl)cc4Cl)O3)cc2)CC1 (centres unmarked) [Ketoconazole]
- Fungicidal Concentration [1]: >800,000 ng/ml
- MIC90 ([1]; 24 h, read-out: MIC90 24 h): 50 mg/L (≈ 94.1 µM)
- MIC90 ([1]; 48 h, read-out: MIC90 48 h): > 800 mg/L

SMILES: C[C@@H]([C@H](N)C(=O)N[C@H](C(=O)O)[C@H]1O[C@@H](n2ccc(=O)[nH]c2=O)[C@H](O)[C@@H]1O)[C@H](O)c1ccc(O)cn1 [Nikkomycin Z, reference compound]
- % Inhibition, Chitin Synthase [2]: 61%

SMILES: CN(C/C=C/C#CC(C)(C)C)Cc1cccc2ccccc12 [Terbinafine, reference compound]
- MIC [3]: 0.004 mg/L (≈ 0.0137 µM)
- net biosynthesis of ergosterol (13C-acetate incorporation) [4]: inhibited the incorporation of acetate into ergosterol
- MIC [5]: 0.008 mg/L (≈ 0.0275 µM)
- MIC [6]: 4 mg/L (≈ 13.7 µM)
- MIC [7]: 0.015 mg/L (≈ 0.0515 µM)
- MIC [8]: 0.008 mg/L (≈ 0.0275 µM)
- MIC [9]: 0.002 mg/L (≈ 0.00686 µM)
- MIC [10]: 0.008 mg/L (≈ 0.0275 µM)
- MIC [11]: 0.015 mg/L (≈ 0.0515 µM)
- MIC [12]: 0.008 mg/L (≈ 0.0275 µM)
- MIC [13]: 0.015 mg/L (≈ 0.0515 µM)
- MIC [14]: 0.008 mg/L (≈ 0.0275 µM)
- MIC range against all dermatophyte strains [15]: 0.002 to 4 mg/L

SMILES: O=C(O)CCCCCCC/C=C/C#CC#Cc1ccco1 [VIII″, (E)-14-(furan-2-yl)tetradeca-9-en-11,13-diynoic acid]
- MIC [16]: 0.15 mg/L (≈ 0.528 µM)
- IC50 [17]: 2.7 mg/L (≈ 9.5 µM)
- IC50 [18]: 0.4 mg/L (≈ 1.41 µM)
- IC50 [19]: 0.004 mg/L (≈ 0.0141 µM)
- IC50 [20]: 3 mg/L (≈ 10.6 µM)

SMILES: O=C(O)CCCCCCCc1ccccc1C#CC#Cc1ccco1 [VII″, 8-(2-(4-(furan-2-yl)buta-1,3-diynyl)phenyl)octanoic acid]
- MIC [21]: > 10.2 mg/L
- MIC [22]: > 10.2 mg/L
- MIC [23]: > 10.2 mg/L
- MIC [16]: > 10.2 mg/L
- MIC [24]: > 10.2 mg/L
- MIC [25]: > 10.2 mg/L
- MIC [26]: > 10.2 mg/L
- MIC [27]: > 10.2 mg/L

SMILES: Cc1cc(C#CC#C/C=C\CCCCCCCC(=O)O)oc1C [VI″, (Z)-14-(4,5-dimethylfuran-2-yl)tetradeca-9-en-11,13-diynoic acid]
- MIC [21]: > 10.2 mg/L
- MIC [22]: > 10.2 mg/L
- MIC [23]: > 10.2 mg/L
- MIC [16]: > 10.2 mg/L
- MIC [24]: > 10.2 mg/L
- MIC [25]: > 10.2 mg/L
- MIC [26]: > 10.2 mg/L
- MIC [27]: > 10.2 mg/L

SMILES: CCCCCCCC/C=C\CCCCCCCC(=O)O [oleic acid, reference compound]
- Doubling time [28]: 2.0 h
- Doubling time ([28]; sodium salt): 2 h
- decrease of the expression level of OLE1 [29]: about 6 fold
